Data from patent publication US4044134A, “Fused pyrimidin-4(3H)-ones as antiallergy agents” (Pfizer Inc., priority 1976, dated 1977).
Counter-ions that a name gives are not always drawn. Like-named read-outs stand apart in the source and are kept apart here.

System: passive cutaneous anaphylaxis (PCA) reaction
Experiment: passive cutaneous anaphylaxis (PCA) test, i.v. or oral administration
Format: in vivo, male Charles River Wistar rats
Experimental: In the PCA test, normal animals are injected intradermally (i.d.) with antibodies contained in serum obtained from actively sensitized animals. The animals are then challenged intravenously with antigen mixed with a dye such as Evans' Blue. The increased capillary-permeability caused by the antigen-antibody reaction causes the dye to leak from the site of the antibody injection. The test animals are then asphyxiated and the intensity of the reaction determined by measuring the diameter and intensity of the blue coloration on the inner surface of the animals skin. […] The ability of agents to interfere with PCA reactions is measured in male Charles River Wistar rats, 170-210 g. […] Hyperimmune antisera to hen egg albumin is prepared according to Orange, et al., J. Exptl. […] Forty-eight hours prior to antigen challenge the reaginic antisera is injected intradermally (i.d.) into the shaved skin of a normal rat's back; 5 hours before challenge the hyperimmune antisera is similarly injected; 5 hours later, at a third site, 60 mcg. histamine dihydrochloride is injected i.d. as a check for antihistaminic and unspecific types of blockage; the compounds of the instant invention or saline are then administered i.v. and immediately followed by 2.5 mg. Evan's blue dye and 5 mg. egg albumin in saline. In the case of oral administration Evan's blue dye and egg albumen are given five minutes after administration of the drug. Thirty minutes later the animals are asphyxiated using chloroform and the skin of the back removed and reversed for observation. A score is assigned each injection site equal to the product of the diameter of the site in mm. and a grade of 0.1, 0.5, 1, 2, 3 or 4 proportional to intensity of dye coloration. The scores for a given injection site are summed for each group of 8 animals and compared to the saline treated controls. The difference is expressed as percent blockade due to the compound employed. […] Disodium cromoglycate, a commerial antiallergy agent, is included for comparison. [drawing 3]

[1] = Rattus norvegicus, iv, I.V., read-out: degree (%) of protection, PCA test
[2] = Rattus norvegicus, Oral, 10 mg/kg, read-out: degree (%) of protection, PCA test
[3] = Rattus norvegicus, Oral, read-out: degree (%) of protection, PCA test
[4] = Rattus norvegicus, iv, I.V., 3 mg/kg, read-out: degree (%) of protection, PCA test
[5] = Rattus norvegicus, iv, I.V., 10 mg/kg, read-out: degree (%) of protection, PCA test
[6] = Rattus norvegicus, Oral, 3 mg/kg, read-out: degree (%) of protection, PCA test
[7] = Rattus norvegicus, iv, I.V., 0.003 mg/kg, read-out: degree (%) of protection, PCA test
[8] = Rattus norvegicus, iv, read-out: degree (%) of protection, PCA test

For `O=C(O)c1nc2nc3ccccc3cc2c(=O)[nH]1` [COONa/H/H/H/H/H, Pyrimido[4,5-b]Quinolin-4(3H)-One-2-Carboxylic Acid Disodium Salt], the inhibition in vivo at 0.3 mg/kg [1] was 68%, the inhibition in vivo at 1 mg/kg [1] was 92% and the inhibition in vivo at 10 mg/kg [2] was 0%. It also gave an inhibition in vivo at 100 mg/kg [3] of 96%.
For `CCCCOC(=O)c1nc2nc3ccccc3cc2c(=O)[nH]1` [COO(n-C4 H9)/H/H/H/H/H, n-Butylpyrimido[4,5-b]Quinolin-4(3H)-One-2-carboxylate], the inhibition in vivo at 0.03 mg/kg [1] was 6%, the inhibition in vivo at 1 mg/kg [1] was 90% and the inhibition in vivo at 30 mg/kg [3] was 50%.
Work on `CCOC(=O)c1nc2nc3ccc([S+](C)[O-])cc3cc2c(=O)[nH]1` (stereo not shown) [COOC2 H5/H/H/SOCH3/H/H, Ethyl 7-Methylsulfinylpyrimido[4,5-b]quinoline-4(3H)-One-2-Carboxylate] yielded an inhibition in vivo at 0.03 mg/kg [1] of 0%, an inhibition in vivo at 0.3 mg/kg [1] of 58% and an inhibition in vivo at 3 mg/kg [4] of 100%. For the same compound, the inhibition in vivo at 30 mg/kg [3] was 12%.
`CCOC(=O)c1nc2cc3ccccc3cc2c(=O)[nH]1` [COOC2 H5/H/H/H/H (Formula II), ethyl Benzo[g]Quinazolin-4(3H)-One-2-Carboxylate] was tested, and the inhibition in vivo at 10 mg/kg [5] was 27% and the inhibition in vivo at 100 mg/kg [3] was 38%.
Compound `O=c1[nH]cnc2nc3ccccc3cc12` [pyrimido[4,5-b]quinolin-4(3H)-one, reference compound] has an inhibition in vivo at 3 mg/kg [4] of 33%.
With `CCc1nc2nc3cc(OC)c(OC)cc3cc2c(=O)[nH]1` [C2 H5/H/H/OCH3/OCH3/H, 2-Ethyl-7,8-Dimethoxypyrimidin[4,5-b]quinolin-4(SH)-One] the inhibition in vivo at 3 mg/kg [4] was 56% and the inhibition in vivo at 60 mg/kg [3] was 0%.
In the case of `CCOC(=O)c1nc2nc3cc(OCc4ccccc4)c(OCC)cc3cc2c(=O)[nH]1` [COOC2 H5/H/H/OC2 H5/OC7 H7/H], the inhibition in vivo at 0.1 mg/kg [1] is reported as 3%, the inhibition in vivo at 0.3 mg/kg [1] is reported as 30% and the inhibition in vivo at 3 mg/kg [4] is reported as 71%. For the same compound, the inhibition in vivo at 10 mg/kg [2] was 0% and the inhibition in vivo at 30 mg/kg [3] was 0%.
Compound `CCOC(=O)c1nc2nc3ccc(O)cc3cc2c(=O)[nH]1` [COOC2 H5/H/H/OH/H/H, ethyl 7-hydroxypyrimido [4,5-b]quinolin-4(3H)one-2-carboxylate hemitrifluoroacetate] has an inhibition in vivo at 0.03 mg/kg [1] of 21%, an inhibition in vivo at 0.3 mg/kg [1] of 92% and an inhibition in vivo at 3 mg/kg [6] of 4%. It also gave an inhibition in vivo at 10 mg/kg [2] of 13%.
With `COc1cc2cc3c(=O)[nH]c(C(=O)OCCO)nc3nc2cc1OC` [COOCH2 CH2 OH/H/H/OCH3/OCH3/H, 2-hydroxyethyl 7,8-Dimethoxy-pyrimidin[4,5-b]quinolin-4-(3H)-One-2-Carboxylate] the inhibition in vivo at 0.03 mg/kg [1] was 92%, the inhibition in vivo at 0.3 mg/kg [1] was 94% and the inhibition in vivo at 3 mg/kg [4] was 97%. The inhibition in vivo at 10 mg/kg [2] was 65%.
With `COc1cc2cc3c(=O)[nH]c(C(=O)O)nc3nc2cc1OC` [COONa/H/H/OCH3/OCH3/H] the inhibition in vivo at 0.01 mg/kg [1] was 71%, the inhibition in vivo at 0.03 mg/kg [1] was 96% and the inhibition in vivo at 0.1 mg/kg [1] was 100%. It also gave an inhibition in vivo at 10 mg/kg [2] of 17%.
In the case of `CCOC(=O)c1nc2nc3cc(OCC)c(OCC)cc3cc2c(=O)[nH]1` [COOC2 H5/H/H/OC2 H5/OC2 H5/H], the inhibition in vivo at 0.003 mg/kg [7] is reported as 21%, the inhibition in vivo at 0.01 mg/kg [1] is reported as 43% and the inhibition in vivo at 0.03 mg/kg [1] is reported as 60%. For the same compound, the inhibition in vivo at 0.1 mg/kg [1] was 90%, the inhibition in vivo at 3 mg/kg [4] was 100% and the inhibition in vivo at 0.3 mg/kg [3] was 42%. The inhibition in vivo at 1 mg/kg [3] was 40%, the inhibition in vivo at 3 mg/kg [6] was 64% and the inhibition in vivo at 10 mg/kg [2] was 81%.
For `CCOC(=O)c1nc2nc3c(OC)c(OC)c(OC)cc3cc2c(=O)[nH]1` [COOC2 H5/H/H/OCH3/OCH3/OCH3], the inhibition in vivo at 0.03 mg/kg [1] was 33%, the inhibition in vivo at 0.3 mg/kg [1] was 23% and the inhibition in vivo at 3 mg/kg [4] was 88%. For the same compound, the inhibition in vivo at 10 mg/kg [2] was 0%.
Work on `CCOC(=O)c1nc2nc3cc(F)ccc3cc2c(=O)[nH]1` [COOC2 H5/H/H/H/F/H, Ethyl 8-fluoropyrimido[4,5-b]quinolin-4(3H)-one-2-carboxylate] yielded an inhibition in vivo at 0.1 mg/kg [1] of 2%.
In the case of `CCOC(=O)c1nc2nc3cc(OCc4ccccc4)c(OC)cc3cc2c(=O)[nH]1` [COOC2 H5/H/H/OCH3/OC7 H7/H, ethyl 7-methoxy-8-benzyloxypyrimido[4,5-b]quinolin-4(3H)one-2-carboxylate], the inhibition in vivo at 0.3 mg/kg [1] is reported as 23% and the inhibition in vivo at 3 mg/kg [4] is reported as 94%.
In the case of `CCOC(=O)c1nc2nc3cc4c(cc3cc2c(=O)[nH]1)OCCO4` [COOC2 H5/H/H/--O--CH2 CH2 --O--/H], the inhibition in vivo at 1 mg/kg [1] is reported as 64% and the inhibition in vivo at 3 mg/kg [4] is reported as 72%.
`O=C(O)c1nc2cc3ccccc3cc2c(=O)[nH]1` [COOH/H/H/H/H (Formula II)] was tested, and the inhibition in vivo at 1 mg/kg [1] was 14%, the inhibition in vivo at 3 mg/kg [4] was 36% and the inhibition in vivo at 10 mg/kg [5] was 100%. It also gave an inhibition in vivo at 10 mg/kg [2] of 33%, an inhibition in vivo at 30 mg/kg [3] of 0% and an inhibition in vivo at 100 mg/kg [3] of 9%.
With `Cc1nc2cc3ccccc3cc2c(=O)[nH]1` [2-methylbenzo[g]quinazolin-4(3H)-one, reference compound] the “activity in the PCA test” value (rat, in vivo) was “little or no activity”.
With `CCOC(=O)c1nc2nc3cc(OC)c(O)cc3cc2c(=O)[nH]1` [COOC2 H5/H/H/OH/OCH3/H, Ethyl 7-Hydroxy-8-Methoxypyrimido[4,5-b]Quinolin-4(3H)One-2-Carboxylate Trifluoroacetate] the inhibition in vivo at 0.0003 mg/kg (Rattus norvegicus, iv, I.V., 0.0003 mg/kg, read-out: degree (%) of protection, PCA test) was 38%, the inhibition in vivo at 0.003 mg/kg [7] was 94% and the inhibition in vivo at 0.01 mg/kg [1] was 98%. For the same compound, the inhibition in vivo at 0.03 mg/kg [1] was 97% and the inhibition in vivo at 30 mg/kg [3] was 6%.
`CCOC(=O)c1nc2nc3cccc(Cl)c3cc2c(=O)[nH]1` [COOC2 H5/H/Cl/H/H/H, Ethyl 6-Chloropyrimido[4,5-b]Quinolin-4(3H)-One-2-Carboxylate] gave an inhibition in vivo at 0.03 mg/kg [1] of 11%, an inhibition in vivo at 1 mg/kg [1] of 96% and an inhibition in vivo at 30 mg/kg [3] of 57%.
`CCOC(=O)c1nc2nc3ccc(OC)cc3cc2c(=O)[nH]1` [COOC2 H5/H/H/OCH3/H/H, Ethyl 7-Methoxypyrimido[4,5-b]-Quinolin-4(3H)-One-2-Carboxylate] was tested, and the inhibition in vivo at 0.1 mg/kg [1] was 68%, the inhibition in vivo at 0.3 mg/kg [1] was 87% and the inhibition in vivo at 3 mg/kg [4] was 100%. The inhibition in vivo at 3 mg/kg [6] was 32% and the inhibition in vivo at 10 mg/kg [2] was 43%.
For `CCOC(=O)c1nc2nc3ccccc3cc2c(=O)[nH]1` [COOC2 H5/H/H/H/H/H, Ethyl Pyrimido[4,5-b]Quinolin-4-(3H)-One-2-Carboxylate], the inhibition in vivo at 0.03 mg/kg [1] was 30%, the inhibition in vivo at 0.1 mg/kg [1] was 45% and the inhibition in vivo at 0.3 mg/kg [1] was 82%. For the same compound, the inhibition in vivo at 1 mg/kg [1] was 100%, the inhibition in vivo at 3 mg/kg [4] was 99% and the inhibition in vivo at 10 mg/kg [5] was 100%. For the same compound, the inhibition in vivo at 1 mg/kg [3] was 12%, the inhibition in vivo at 3 mg/kg [6] was 69% and the inhibition in vivo at 30 mg/kg [3] was 72%. The inhibition in vivo at 60 mg/kg [3] was 100% and the inhibition in vivo at 100 mg/kg [3] was 80%.
`CCCCOc1cc2nc3nc(C(=O)OCC)[nH]c(=O)c3cc2cc1OCC` [COOC2 H5/H/H/OC2 H5/O-(n-C4 H9)/H] gave an inhibition in vivo at 0.03 mg/kg [1] of 0%, an inhibition in vivo at 0.1 mg/kg [1] of 28% and an inhibition in vivo at 0.3 mg/kg [1] of 44%. The inhibition in vivo at 1 mg/kg [1] was 95%, the inhibition in vivo at 3 mg/kg [4] was 90% and the inhibition in vivo at 1 mg/kg [3] was 3%. It also gave an inhibition in vivo at 3 mg/kg [6] of 43% and an inhibition in vivo at 10 mg/kg [2] of 67%.
`CCOC(=O)c1nc2nc3ccc(OCc4ccccc4)cc3cc2c(=O)[nH]1` [COOC2 H5/H/H/OC7 H7/H/H, ethyl 7-benzyloxypyrimido-[4,5-b]quinolin-4(3H) one-2-carboxylate] showed an inhibition in vivo at 0.3 mg/kg [1] of 23%, an inhibition in vivo at 3 mg/kg [4] of 85% and an inhibition in vivo at 3 mg/kg [6] of 3%. The inhibition in vivo at 10 mg/kg [2] was 60%.
Work on `CCOC(=O)c1nc2nc3cc(OC)c(OC(C)=O)cc3cc2c(=O)[nH]1` [COOC2 H5/H/H/CH3 COO/OCH3/H, Ethyl 7-Acetoxy-8-Methoxypyrimido[4,5-b]Quinolin-4(3H)One-2-Carboxylate p-Toluenesulfonate] yielded an inhibition in vivo at 0.003 mg/kg [8] of 53%, an inhibition in vivo at 3 mg/kg [8] of 100% and an inhibition in vivo at 10 mg/kg (Rattus norvegicus, po, read-out: degree (%) of protection, PCA test) of 40%.
